Source: patent US10131652B2, “Pyrimidinyloxy benzene derivatives as herbicides” (E. I. DU PONT DE NEMOURS AND COMPANY, priority 2014, dated 2018)

How the values were obtained:
Format in all cases: in vivo
[1] = tested on: Italian ryegrass (Lolium multiflorum); test: Test B pre-/postemergence plant response
In short: (§1)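 Greenhouse pots, loam/sand soil; compound formulated with surfactant in non-phytotoxic solvent. Preemergence soil spray and postemergence spray at 1–2 leaf stage run simultaneously. Visual injury, 0–100, about 10 days post-treatment.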

kochia (Kochia scoparia) = test: Test B pre-/postemergence plant response
In short: as §1

[2] = tested on: ragweed (common ragweed, Ambrosia elatior); test: Test B pre-/postemergence plant response
In short: as §1

[3] = tested on: Italian ryegrass (Lolium multiflorum); test: Test D pre-/postemergence plant response
In short: (§2)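 Seeds sown in loam–sand blend got preemergence sprays of test chemicals in a non-phytotoxic solvent with surfactant; postemergence sprays went on plants at 1- to 4-leaf stage (2 to 18 cm) in peat/vermiculite medium. After 13 to 15 days in greenhouse, visual injury versus controls scored 0 (no effect) to 100 (complete control).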

[4] = tested on: barnyardgrass (Echinochloa crus-galli); test: Test D pre-/postemergence plant response
In short: as §2

[5] = tested on: blackgrass (Alopecurus myosuroides); test: Test D pre-/postemergence plant response
In short: as §2

corn (Zea mays) = test: Test D pre-/postemergence plant response
In short: as §2

[6] = tested on: giant foxtail (Setaria faberii); test: Test D pre-/postemergence plant response
In short: as §2

[7] = tested on: lambsquarters (Chenopodium album); test: Test D pre-/postemergence plant response
In short: as §2

[8] = tested on: large (Lg) crabgrass (Digitaria sanguinalis); test: Test D pre-/postemergence plant response
In short: as §2

[9] = tested on: morningglory (Ipomoea coccinea); test: Test D pre-/postemergence plant response
In short: as §2

[10] = tested on: pigweed (Amaranthus retroflexus); test: Test D pre-/postemergence plant response
In short: as §2

soybean (Glycine max) = test: Test D pre-/postemergence plant response
In short: as §2

[11] = tested on: velvetleaf (Abutilon theophrasti); test: Test D pre-/postemergence plant response
In short: as §2

[12] = tested on: waterhemp (common waterhemp, Amaranthus rudis); test: Test D pre-/postemergence plant response
In short: as §2

[13] = 31 g ai/ha, Preemergence, 0 to 100 scale where 0 is no effect and 100 is complete control
[14] = 125 g ai/ha, postemergence, 0 to 100 scale, 0 no effect, 100 complete control
[15] = Postemergence, 31 g ai/ha, 0 to 100 scale (0 no effect, 100 complete control)
[16] = Preemergence, 125 g ai/ha, 0 to 100 scale (0 no effect, 100 complete control)
[17] = Postemergence, 31 g ai/ha, scale 0 to 100 (0 no effect, 100 complete control)
[18] = Postemergence, 62 g ai/ha, scale 0 to 100, 0 no effect, 100 complete control
[19] = Postemergence, 125 g ai/ha, scale 0 to 100, 0 no effect, 100 complete control
[20] = Preemergence, 8 g ai/ha, scale 0 to 100 (0 no effect, 100 complete control)
[21] = Preemergence, 16 g ai/ha, scale 0 to 100 (0 no effect, 100 complete control)
[22] = Preemergence, 31 g ai/ha, scale 0 to 100 (0 no effect, 100 complete control)
[23] = Preemergence, 62 g ai/ha, scale 0 to 100 (0 no effect, 100 complete control)
[24] = Postemergence, 16 g ai/ha, scale 0 to 100 (0 no effect, 100 complete control)
[25] = 31 g ai/ha, Postemergence, 0 to 100 scale, 0 no effect, 100 complete control

FC(F)(Cl)c1cc(-c2ccccc2Oc2ncc(Cl)cn2)no1 [Compound 143]
10: Plant response rating, Barnyardgrass [4, 18] | Blackgrass plant response rating [5, 24] | Blackgrass plant response rating [5, 17] | Plant response rating, Blackgrass [5, 21] | Plant response rating, Corn (corn (Zea mays); [19]) | Foxtail, Giant plant response rating [6, 17] | Plant response rating, Foxtail, Giant [6, 18] | Crabgrass, Large plant response rating [8, 24] | Crabgrass, Large plant response rating [8, 17] | Plant response rating, Morningglory [9, 21] | Plant response rating, Soybean (soybean (Glycine max); [22])
50: Plant response rating, Ryegrass, Italian [1, 14] | Plant response rating, Foxtail, Giant [6, 19] | Plant response rating, Velvetleaf [11, 18]
80: Lambsquarters plant response rating [7, 17]
65: Plant response rating, Barnyardgrass [4, 19] | Plant response rating, Velvetleaf [11, 19]
100: Plant response rating, Kochia (kochia (Kochia scoparia); [14]) | Plant response rating, Kochia (kochia (Kochia scoparia); [15]) | Plant response rating, Corn (corn (Zea mays); [23]) | Plant response rating, Foxtail, Giant [6, 22] | Plant response rating, Foxtail, Giant [6, 23] | Plant response rating, Lambsquarters [7, 19] | Plant response rating, Crabgrass, Large [8, 22] | Plant response rating, Crabgrass, Large [8, 23] | Plant response rating, Morningglory [9, 19] | Plant response rating, Pigweed [10, 18] | Plant response rating, Pigweed [10, 19] | Plant response rating, Pigweed [10, 21] | Plant response rating, Pigweed [10, 22] | Plant response rating, Pigweed [10, 23] | Waterhemp plant response rating [12, 17] | Plant response rating, Waterhemp [12, 18] | Plant response rating, Waterhemp [12, 19] | Plant response rating, Waterhemp [12, 21] | Plant response rating, Waterhemp [12, 23]
55: Plant response rating, Morningglory [9, 23]
70: Plant response rating, Ryegrass, Italian [3, 23] | Plant response rating, Barnyardgrass [4, 22] | Plant response rating, Lambsquarters [7, 21]
40: Plant response rating, Foxtail, Giant [6, 20]
5: Plant response rating, Ryegrass, Italian [3, 21] | Plant response rating, Ryegrass, Italian [3, 22] | Barnyardgrass plant response rating [4, 24] | Barnyardgrass plant response rating [4, 17] | Plant response rating, Barnyardgrass [4, 20] | Corn plant response rating (corn (Zea mays); [24]) | Corn plant response rating (corn (Zea mays); [17]) | Plant response rating, Corn (corn (Zea mays); [18]) | Plant response rating, Corn (corn (Zea mays); [22]) | Foxtail, Giant plant response rating [6, 24] | Plant response rating, Soybean (soybean (Glycine max); [21])
75: Plant response rating, Velvetleaf [11, 22]
98: Plant response rating, Barnyardgrass [4, 23] | Plant response rating, Lambsquarters [7, 18] | Plant response rating, Crabgrass, Large [8, 21] | Plant response rating, Waterhemp [12, 22]
0: Plant response rating, Ryegrass, Italian [1, 13] | Plant response rating, Ryegrass, Italian [1, 15] | Plant response rating, Ragweed [2, 13] | Plant response rating, Ragweed [2, 15] | Ryegrass, Italian plant response rating [3, 17] | Plant response rating, Ryegrass, Italian [3, 18] | Plant response rating, Ryegrass, Italian [3, 20] | Plant response rating, Blackgrass [5, 20] | Plant response rating, Corn (corn (Zea mays); [20]) | Plant response rating, Corn (corn (Zea mays); [21]) | Plant response rating, Morningglory [9, 20] | Plant response rating, Soybean (soybean (Glycine max); [20])
60: Ryegrass, Italian plant response rating [1, 16] | Plant response rating, Crabgrass, Large [8, 20] | Plant response rating, Soybean (soybean (Glycine max); [18]) | Plant response rating, Soybean (soybean (Glycine max); [19])
20: Plant response rating, Ragweed [2, 14] | Plant response rating, Barnyardgrass [4, 21] | Plant response rating, Blackgrass [5, 18]
15: Plant response rating, Ryegrass, Italian [3, 19] | Plant response rating, Blackgrass [5, 22] | Plant response rating, Crabgrass, Large [8, 18]
85: Plant response rating, Foxtail, Giant [6, 21] | Plant response rating, Lambsquarters [7, 22] | Plant response rating, Lambsquarters [7, 23] | Plant response rating, Velvetleaf [11, 23]
95: Plant response rating, Waterhemp [12, 20]
25: Plant response rating, Lambsquarters [7, 20] | Plant response rating, Soybean (soybean (Glycine max); [23])
90: Kochia plant response rating (kochia (Kochia scoparia); [16]) | Plant response rating, Blackgrass [5, 23] | Plant response rating, Morningglory [9, 18] | Pigweed plant response rating [10, 17] | Plant response rating, Pigweed [10, 20]
35: Plant response rating, Crabgrass, Large [8, 19] | Plant response rating, Morningglory [9, 22] | Plant response rating, Velvetleaf [11, 20]
30: Plant response rating, Kochia (kochia (Kochia scoparia); [13]) | Ragweed plant response rating [2, 16] | Plant response rating, Blackgrass [5, 19] | Soybean plant response rating (soybean (Glycine max); [17]) | Velvetleaf plant response rating [11, 17] | Plant response rating, Velvetleaf [11, 21]

FC(F)c1cc(-c2c(Cl)cccc2Oc2ncc(Br)cn2)on1 [Compound 121]
5: Blackgrass plant response rating [5, 24]
100: Plant response rating, Kochia (kochia (Kochia scoparia); Preemergence, 125 g ai/ha, 0 to 100 scale where 0 is no effect and 100 is complete control) | Lambsquarters plant response rating [7, 17] | Plant response rating, Lambsquarters [7, 18] | Plant response rating, Lambsquarters [7, 19] | Plant response rating, Pigweed [10, 18] | Plant response rating, Pigweed [10, 19] | Plant response rating, Waterhemp [12, 18] | Plant response rating, Waterhemp [12, 19]
10: Plant response rating, Ragweed [2, 13] | Ryegrass, Italian plant response rating [3, 17] | Corn plant response rating (corn (Zea mays); [24]) | Foxtail, Giant plant response rating [6, 24] | Foxtail, Giant plant response rating [6, 17] | Crabgrass, Large plant response rating [8, 17]
55: Plant response rating, Ryegrass, Italian [3, 19] | Plant response rating, Crabgrass, Large [8, 19]
80: Velvetleaf plant response rating [11, 17] | Plant response rating, Velvetleaf [11, 18]
45: Plant response rating, Barnyardgrass [4, 19]
40: Plant response rating, Ryegrass, Italian [3, 18] | Plant response rating, Foxtail, Giant [6, 19] | Plant response rating, Crabgrass, Large [8, 18]
20: Barnyardgrass plant response rating [4, 24] | Corn plant response rating (corn (Zea mays); [17]) | Plant response rating, Corn (corn (Zea mays); [18])
70: Plant response rating, Ryegrass, Italian [1, 14]
30: Plant response rating, Ryegrass, Italian [1, 13] | Plant response rating, Blackgrass [5, 18]
50: Plant response rating, Ryegrass, Italian [1, 25] | Plant response rating, Ragweed [2, 25] | Plant response rating, Blackgrass [5, 19]
95: Plant response rating, Soybean (soybean (Glycine max); [19]) | Waterhemp plant response rating [12, 17]
15: Plant response rating, Foxtail, Giant [6, 18] | Crabgrass, Large plant response rating [8, 24]
98: Plant response rating, Morningglory [9, 19] | Pigweed plant response rating [10, 17]
25: Barnyardgrass plant response rating [4, 17] | Plant response rating, Barnyardgrass [4, 18] | Blackgrass plant response rating [5, 17] | Plant response rating, Corn (corn (Zea mays); [19])
85: Plant response rating, Velvetleaf [11, 19]
90: Plant response rating, Kochia (kochia (Kochia scoparia); [25]) | Plant response rating, Kochia (kochia (Kochia scoparia); [14]) | Plant response rating, Morningglory [9, 18] | Plant response rating, Soybean (soybean (Glycine max); [18])
75: Morningglory plant response rating [9, 17]
60: Plant response rating, Kochia (kochia (Kochia scoparia); [13]) | Plant response rating, Ragweed [2, 14] | Soybean plant response rating (soybean (Glycine max); [17])
